Test results from publication PMC6479402, “Anti-Herpetic, Anti-Dengue and Antineoplastic Activities of Simple and Heterocycle-Fused Derivatives of Terpenyl-1,4-Naphthoquinone and 1,4-Anthraquinone” (Molecules, 2019).
Where two headings read alike, the source gives them in different places.

Columns and labels:
Vero = assay: MTT cytotoxicity assay, non-tumor cells; assay type: cell-based, Cercopithecus aethiops; details: for IC50: Chlorocebus sabaeus
Method: The in vitro cytotoxicity evaluation of quinones was performed using the 3-(4,5 dimethylthiazol-2-yl)-2,5-diphenyltetrazolium bromide (MTT, Sigma, Cream Ridge, NJ, USA) assay as described by Betancur-Galvis et al. 2002 [22]. Briefly, Vero and HeLa cell lines were seeded at 2.0 × 10^3 cells per well of 96-well plates in DMEM supplemented with 10% of inactivated FBS, and were incubated for 24 h at 37 °C, 5% CO2. Then, each diluted molecule was added to the cells and incubated for further 48 h at 37 °C, 5% CO2. Jurkat cell line at 3 × 10^3 cells per well in a 96-well round-bottomed plate and diluted substances in RPMI-1640 medium (Sigma) supplemented with 10% FBS were plated simultaneously. After 48 h of treatment at 37 °C, 5% CO2, the media was carefully removed and 28 µL of MTT solution (4 mg/mL) was added to each well, and the plates were incubated for 2 h at 37 °C, 5% CO2. The DMSO was then added to dissolve the formed formazan crystals and absorbance was determined spectrophotometrically at 570 nm.
The minimal dilution of compound that caused 50% inhibition of the cells (IC50) was calculated by linear regression analysis of the dose-response curves generated from the absorbance data with the statistical GraphPad Prisma 5.0. IC50 values were expressed as the mean ± standard deviation (M ± SD) of two independent experiments done in quadruplicate.

Jurkat = assay: MTT cytotoxicity assay; assay type: cell-based; details: Homo sapiens, Jurkat ATCC TIB-152, 48 h, read-out: IC50 ± SD, Jurkat
Method: (§1) Then, each diluted molecule was added to the cells and incubated for further 48 h at 37 °C, 5% CO2. […] The DMSO was then added to dissolve the formed formazan crystals and absorbance was determined spectrophotometrically at 570 nm. […] IC50 values were expressed as the mean ± standard deviation (M ± SD) of two independent experiments done in quadruplicate.

HeLa = assay: MTT cytotoxicity assay; assay type: cell-based; details: Homo sapiens, HeLa ATCC CRL-1958, 48 h, read-out: IC50 ± SD, HeLa
Method: as §1

DENV-2 [1] = tested on: DENV-2; design: method as in PMID 20837762; details: low concentrations; cited from earlier work
[2] = tested on: Human Herpesvirus type 2 (HHV-2); assay: End-point titration technique (EPTT), anti-herpetic screening on infected Vero cells; assay type: cell-based, Human Herpesvirus 2
Method: (§2) The in vitro antiviral evaluation of the 27 substances against Human Herpesvirus type 1 (HHV-1) and 2 (HHV-2) was made on infected Vero cells, using the end-point titration technique (EPTT).
(§3) The antiviral activity of molecules against 1 and 10 Cell Culture Infectious Dose 50% (10TCID50) of HHV-1 and HHV-2, respectively, was determined using end-point titration technique (EPTT). Vero cells grown in 96-well plates at a density of 2.0 × 10^4 cells/well were incubated at 37 °C in 5% CO2 atmosphere until constitute 80% of cell monolayer. Then, viral suspensions of HHV-1 or HHV-2 with concentrations of 6.25 µg/mL to 50 µg/mL of compounds were performed in DMEM supplemented with 2% FBS containing 1% and 0.5% carboxymethylcellulose (CMC) for HHV-1 and HHV-2, respectively. Mixture was incubated during 15 minutes at room temperature and was added to the cell monolayer. After 48 h of incubation at 37 °C (5% CO2), the cytopathic effect was examined, the microplates were fixed with 3.5% formaldehyde and stained with 0.2% crystal violet. Two independent experiments by quadruplicate for each viral serotype and each were carried out. Positive controls, such as dextran sulfate (DS) and acyclovir (A) for early stages and late stages of infection, respectively, were included.

HHV-1 = assay: Plaque reduction assay, simultaneous and post-infection treatment, Vero cells; assay type: cell-based, Human Herpesvirus 1
Method: (§4) To define the stage of the viral replicative cycle where NQ 4 exerts its action, simultaneous and post-infection treatments against HHV-1 and HHV-2 were performed. […] First, we determined the inhibitory concentration 50% (IC50) for the compound and drug positive controls on infected cells and their effects on non-tumoral Vero cells, to define the concentration of evaluation and to calculate the antiviral selectivity index (SI). Then, the concentration of NQ 4 that reduced the number of viral plaques by 50% (EC50) was determined from the dose-response curves.
(§5) The potential antiviral mechanism of NQ 4 was evaluated by the plaque reduction assay as previously described by us. Vero cell monolayers grown in 24-well plates were infected with 100 PFU/well of each virus. For simultaneous treatment, the compound and the virus were added simultaneously to the cell monolayers and incubated for 1 h at 37 °C (5% CO2). Then, cells were washed with phosphate buffered saline (PBS, pH = 7.0) and CMC at 1% and 0.75% was added for HHV-1 and HHV-2, respectively. In post-infection treatment, virus was added to cell monolayer and incubated for 1 h at 37 °C (5% CO2). After incubation, washing was performed with PBS and molecule previously prepared in CMC 1% and 0.75% for HHV-1 and HHV-2 respectively, was added. In both treatments, NQ 4 was prepared at concentrations from 0.4 µg/mL to 3.1 µg/mL and the cell monolayers allowed to incubate for 72 h. Subsequently, cells were fixed and stained with a solution of 3.5% formaldehyde with 0.2% crystal violet, and the viral plaques were counted. Dextran sulfate (DS) was included as positive control in simultaneous assay and acyclovir (A) was the positive control in after infection treatment.

[3] = tested on: Human Herpesvirus type 1 (HHV-1); assay: End-point titration technique (EPTT), anti-herpetic screening on infected Vero cells; assay type: cell-based; details: for Rf (reduction factor of the viral titer), HHV-1: 1 TCID50, 48 h
Method: as §2, §3

HHV-2 = assay: Plaque reduction assay, simultaneous and post-infection treatment, Vero cells; assay type: cell-based, Human Herpesvirus 2
Method: as §4, §5

DENV-2 [4] = assay: Plaque reduction assay, simultaneous and post-infection treatment, BHK-21 cells; assay type: cell-based, Dengue virus type 2; details: post-infective stages, ribavirin 3.7 µg/mL
Method: as §4
Against DENV, the effect of NQ 4 either simultaneously or post-infection was also evaluated by the plaque reduction assay as previously described. Concentrations employed for this assay were from 0.4 µg/mL to 1.6 µg/mL. In this test, BHK-21 cell monolayers grown in 24-well plates were infected with 100 PFU/well of DENV-2 and treatments were performed in the same way to describe for Herpesviruses. Moreover, the monolayers were incubated for 6 days, fixed and stained with a solution of 3.5% formaldehyde with 0.2% crystal violet, and the viral plaques were counted. Heparin (H) was included as a positive control in the simultaneous assay, and ribavirin (R) was the positive control in after infection treatment.

[5] = non-tumoral Vero cells, data not shown
[6] = Vero ATCC CCL-81, 48 h, MTT, read-out: IC50 ± SD, Vero
[7] = non-tumoral Vero cells, data not shown, read-out: IC50 on Vero cells
[8] = post-infective stages, acyclovir 1.5 µg/mL
[9] = simultaneous treatment, PFU, NQ 4 0.4–3.1 µg/mL, DS 5 µg/mL

Compound | IC50 on Vero cells (Vero; [5]) [µg/mL] | IC50 (Jurkat) [µM] | IC50 (HeLa) [µM] | IC50 (Vero; [6]) [µM] | IC50 (Vero; [7]) [µg/mL] | Rf (reduction factor of the viral titer), HHV-1 [3] | other results
heparin [reference compound] | > 400 | – | – | – | – | – | –
COc1cccc2c1C(=O)c1c(O)c3c(c(O)c1C2=O)C[C@@](O)(C(=O)CO)C[C@@H]3O[C@H]1C[C@H](N)[C@H](O)[C@H](C)O1 [Doxorubicin, doxorubicin, reference compound] | – | 0.1 ± 0.01 | 0.9 ± 0.1 | 2 ± 0.1 | – | – | Activity against DENV-2 at very early stages of the viral replication cycle (DENV-2 [1]): active
Nc1nc2c(ncn2COCCO)c(=O)[nH]1 [A, Acyclovir, reference compound] | – | – | – | – | > 400 | 10^4 | Rf (reduction factor of the viral titer), HHV-2 ([2]; 10 TCID50, 48 h): 10^4; minimal effective concentration ([2]; Human alphaherpesvirus 2, 10 TCID50, 48 h, tested 6.25-50 µg/mL, read-out: 10 TCID50: non-toxic concentration that showed viral reduction factor, HHV-2): 1.5 µg/mL; Antiviral activity in post-infection treatment, HHV-1 (HHV-1; [8]): active; minimal effective concentration ([3]; Human alphaherpesvirus 1, 1 TCID50, 48 h, tested 6.25-50 µg/mL, read-out: 1 TCID50: non-toxic concentration that showed viral reduction factor, HHV-1): 1.5 µg/mL; Antiviral activity in post-infection treatment, HHV-2 (HHV-2; [8]): active
CCn1c(C)c(C(=O)OC)c2c1C(=O)c1cc3c(cc1C2=O)C(C)(C)CCC3 [HetQ 22] | – | 71.7 ± 1.8 | 73 ± 1.6 | 183 ± 15.9 | – | – | –
NC(=O)c1ncn([C@@H]2O[C@H](CO)[C@@H](O)[C@H]2O)n1 [ribavirin, reference compound] | – | – | – | – | > 400 | – | Antiviral activity in post-infection treatment, DENV-2 (DENV-2 [4]): active
Dextran sulfate [DS, reference compound] | > 400 | – | – | – | – | 10^2 | Antiviral activity in simultaneous treatment, HHV-1 (HHV-1; [9]): active; 1 TCID50: non-toxic concentration that showed viral reduction factor, HHV-1 ([3]; 48 h, tested 6.25-50 µg/mL): 0.5 µg/mL; Antiviral activity in simultaneous treatment, HHV-2 (HHV-2; [9]): active
